Assay in all cases: relative viability (nuclei count vs DMSO), 5 days (fraction); higher = more cells survive
Compound in the assay “Kobe2602 + Trametinib”: C1=CC(=CC=C1NC(=S)NNC2=C(C=C(C=C2[N+](=O)[O-])C(F)(F)F)[N+](=O)[O-])F [Kobe2602] + CC(=O)Nc1cccc(-n2c(=O)n(C3CC3)c(=O)c3c(Nc4ccc(I)cc4F)n(C)c(=O)c(C)c32)c1 [Trametinib] (partner 0.02 µM)
In short, it runs like this:
(§1)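 Five library-drug doses in √10 steps were combined with a fixed anchor-drug dose, or a single drug was given alone, by pin tool to lung cancer cell lines in 1536-well plates the day after seeding. Nuclei were stained and counted after 5 days. Relative viability is the nuclei count in treated wells over that in vehicle wells, taken as the median of duplicate plates.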

Compound in the assay “Kobe2602 + Pictilisib”: C1=CC(=CC=C1NC(=S)NNC2=C(C=C(C=C2[N+](=O)[O-])C(F)(F)F)[N+](=O)[O-])F [Kobe2602] + CS(=O)(=O)N1CCN(Cc2cc3nc(-c4cccc5[nH]ncc45)nc(N4CCOCC4)c3s2)CC1 [Pictilisib] (partner 1 µM)
The gist of the method: as §1

Compound in the assay “Cabozantinib + Alpelisib”: COc1cc2nccc(Oc3ccc(NC(=O)C4(C(=O)Nc5ccc(F)cc5)CC4)cc3)c2cc1OC [Cabozantinib] + Cc1nc(NC(=O)N2CCC[C@H]2C(N)=O)sc1-c1ccnc(C(C)(C)C(F)(F)F)c1 [Alpelisib] (partner 2 µM)
In short, it runs like this: as §1

Compound in the assay “Zosuquidar + Phenformin”: O[C@@H](COc1cccc2ncccc12)CN1CCN([C@@H]2c3ccccc3[C@@H]3[C@H](c4ccccc42)C3(F)F)CC1 [Zosuquidar] + N=C(N)NC(=N)NCCc1ccccc1 [Phenformin] (partner 250 µM)
The gist of the method: as §1

Consider NCI-H647, for which the relative viability in the assay with Kobe2602 + Trametinib (first compound 0.2 µM) is 0.383; with Kobe2602 + Trametinib (first compound 0.6325 µM), 0.474; in the assay with Kobe2602 + Trametinib (first compound 2 µM) it was 0.505; in the assay with Kobe2602 + Trametinib (first compound 6.325 µM), 0.425; with Kobe2602 + Trametinib (first compound 20 µM) it was 0.494; in the assay with Kobe2602 + Pictilisib (first compound 0.2 µM), 0.432. Besides, the relative viability with Kobe2602 + Pictilisib (first compound 0.6325 µM) is 0.483; with Kobe2602 + Pictilisib (first compound 2 µM), 0.455; with Kobe2602 + Pictilisib (first compound 6.325 µM), 0.425; with Kobe2602 + Pictilisib (first compound 20 µM) it was 0.567; with Cabozantinib + Alpelisib (first compound 0.02 µM), 1.2; with Cabozantinib + Alpelisib (first compound 0.06325 µM) it was 1.43. The relative viability in the assay with Cabozantinib + Alpelisib (first compound 0.2 µM) was determined as 1.37; in the assay with Cabozantinib + Alpelisib (first compound 0.6325 µM), 0.956; with Cabozantinib + Alpelisib (first compound 2 µM), 0.535; with Zosuquidar + Phenformin (first compound 0.01 µM), 0.531; with Zosuquidar + Phenformin (first compound 0.03162 µM), 0.39; in the assay with Zosuquidar + Phenformin (first compound 0.1 µM), 0.453. Moreover, the relative viability with Zosuquidar + Phenformin (first compound 0.3162 µM) came out at 0.592; with Zosuquidar + Phenformin (first compound 1 µM), 0.462.

For NCI-H650, the relative viability with Kobe2602 + Trametinib (first compound 0.2 µM) is 0.943; with Kobe2602 + Trametinib (first compound 0.6325 µM), 0.961; in the assay with Kobe2602 + Trametinib (first compound 2 µM), 1; with Kobe2602 + Trametinib (first compound 6.325 µM), 0.993; with Kobe2602 + Trametinib (first compound 20 µM), 0.845; with Kobe2602 + Pictilisib (first compound 0.2 µM) it was 0.946. In addition, the relative viability in the assay with Kobe2602 + Pictilisib (first compound 0.6325 µM) worked out at 0.935; in the assay with Kobe2602 + Pictilisib (first compound 2 µM), 0.775; with Kobe2602 + Pictilisib (first compound 6.325 µM), 0.859; in the assay with Kobe2602 + Pictilisib (first compound 20 µM), 0.883; with Cabozantinib + Alpelisib (first compound 0.02 µM), 1.04; with Cabozantinib + Alpelisib (first compound 0.06325 µM) it was 1.01. Further, the relative viability was determined as 1.13 with Cabozantinib + Alpelisib (first compound 0.2 µM); 1.05 with Cabozantinib + Alpelisib (first compound 0.6325 µM); 0.926 with Cabozantinib + Alpelisib (first compound 2 µM); 0.464 with Zosuquidar + Phenformin (first compound 0.01 µM); 0.42 with Zosuquidar + Phenformin (first compound 0.03162 µM); 0.379 with Zosuquidar + Phenformin (first compound 0.1 µM). Besides, the relative viability with Zosuquidar + Phenformin (first compound 0.3162 µM) was found to be 0.482; with Zosuquidar + Phenformin (first compound 1 µM) it was 0.448.

For the cell line NCI-H661, the relative viability is 0.554 with Kobe2602 + Trametinib (first compound 0.2 µM); 0.594 with Kobe2602 + Trametinib (first compound 0.6325 µM); 0.594 in the assay with Kobe2602 + Trametinib (first compound 2 µM); 0.622 in the assay with Kobe2602 + Trametinib (first compound 6.325 µM); 0.522 with Kobe2602 + Trametinib (first compound 20 µM); 0.461 in the assay with Kobe2602 + Pictilisib (first compound 0.2 µM). Besides, the relative viability turned out to be 0.368 in the assay with Kobe2602 + Pictilisib (first compound 0.6325 µM); 0.419 in the assay with Kobe2602 + Pictilisib (first compound 2 µM); 0.353 in the assay with Kobe2602 + Pictilisib (first compound 6.325 µM); 0.52 with Kobe2602 + Pictilisib (first compound 20 µM); 0.544 with Cabozantinib + Alpelisib (first compound 0.02 µM); 0.758 with Cabozantinib + Alpelisib (first compound 0.06325 µM). In addition, the relative viability in the assay with Cabozantinib + Alpelisib (first compound 0.2 µM) came out at 0.725; with Cabozantinib + Alpelisib (first compound 0.6325 µM), 0.755; in the assay with Cabozantinib + Alpelisib (first compound 2 µM) it was 0.609; in the assay with Zosuquidar + Phenformin (first compound 0.01 µM), 0.267; with Zosuquidar + Phenformin (first compound 0.03162 µM), 0.254; in the assay with Zosuquidar + Phenformin (first compound 0.1 µM), 0.275. Further, the relative viability with Zosuquidar + Phenformin (first compound 0.3162 µM) was 0.275; with Zosuquidar + Phenformin (first compound 1 µM), 0.27.

Take NCI-H727: the relative viability with Kobe2602 + Trametinib (first compound 0.2 µM) stood at 0.417; with Kobe2602 + Trametinib (first compound 0.6325 µM), 0.408; with Kobe2602 + Trametinib (first compound 2 µM) it was 0.355; with Kobe2602 + Trametinib (first compound 20 µM), 0.371; in the assay with Kobe2602 + Pictilisib (first compound 0.2 µM), 0.314; with Kobe2602 + Pictilisib (first compound 0.6325 µM) it was 0.356. In addition, the relative viability in the assay with Kobe2602 + Pictilisib (first compound 2 µM) amounted to 0.473; with Kobe2602 + Pictilisib (first compound 6.325 µM) it was 0.331; in the assay with Kobe2602 + Pictilisib (first compound 20 µM), 0.385; in the assay with Cabozantinib + Alpelisib (first compound 0.02 µM), 0.505; in the assay with Cabozantinib + Alpelisib (first compound 0.06325 µM), 0.6; with Cabozantinib + Alpelisib (first compound 0.2 µM), 0.593. Moreover, the relative viability in the assay with Cabozantinib + Alpelisib (first compound 0.6325 µM) was 0.529; with Cabozantinib + Alpelisib (first compound 2 µM), 0.594; in the assay with Zosuquidar + Phenformin (first compound 0.01 µM), 0.318; in the assay with Zosuquidar + Phenformin (first compound 0.03162 µM), 0.563; with Zosuquidar + Phenformin (first compound 0.1 µM) it was 0.466; with Zosuquidar + Phenformin (first compound 0.3162 µM), 0.522. Besides, the relative viability in the assay with Zosuquidar + Phenformin (first compound 1 µM) was 0.519.

Regarding NCI-H838, the relative viability with Kobe2602 + Trametinib (first compound 0.2 µM) came to 0.516; with Kobe2602 + Trametinib (first compound 0.6325 µM) it was 0.566; in the assay with Kobe2602 + Trametinib (first compound 2 µM), 0.49; with Kobe2602 + Trametinib (first compound 6.325 µM), 0.536; with Kobe2602 + Trametinib (first compound 20 µM), 0.466; with Kobe2602 + Pictilisib (first compound 0.2 µM), 0.393. For the same cell line, the relative viability with Kobe2602 + Pictilisib (first compound 0.6325 µM) came to 0.489; with Kobe2602 + Pictilisib (first compound 2 µM) it was 0.426; in the assay with Kobe2602 + Pictilisib (first compound 6.325 µM), 0.422; with Kobe2602 + Pictilisib (first compound 20 µM), 0.418; with Cabozantinib + Alpelisib (first compound 0.02 µM), 1.06; with Cabozantinib + Alpelisib (first compound 0.06325 µM), 1.08. The relative viability in the assay with Cabozantinib + Alpelisib (first compound 0.2 µM) is 0.989; with Cabozantinib + Alpelisib (first compound 0.6325 µM), 0.933; in the assay with Cabozantinib + Alpelisib (first compound 2 µM) it was 0.886; with Zosuquidar + Phenformin (first compound 0.01 µM), 0.568; with Zosuquidar + Phenformin (first compound 0.03162 µM), 0.418; with Zosuquidar + Phenformin (first compound 0.1 µM), 0.432. The relative viability is 0.663 in the assay with Zosuquidar + Phenformin (first compound 0.3162 µM) and 0.576 with Zosuquidar + Phenformin (first compound 1 µM).

NCI-H1355: the relative viability was 0.441 in the assay with Kobe2602 + Trametinib (first compound 0.2 µM); 0.464 in the assay with Kobe2602 + Trametinib (first compound 0.6325 µM); 0.369 with Kobe2602 + Trametinib (first compound 2 µM); 0.415 with Kobe2602 + Trametinib (first compound 6.325 µM); 0.43 with Kobe2602 + Trametinib (first compound 20 µM); 0.358 in the assay with Kobe2602 + Pictilisib (first compound 0.2 µM). Besides, the relative viability in the assay with Kobe2602 + Pictilisib (first compound 0.6325 µM) is 0.526; in the assay with Kobe2602 + Pictilisib (first compound 2 µM), 0.451; with Kobe2602 + Pictilisib (first compound 6.325 µM) it was 0.429; with Kobe2602 + Pictilisib (first compound 20 µM) it was 0.42; in the assay with Cabozantinib + Alpelisib (first compound 0.02 µM), 0.934; with Cabozantinib + Alpelisib (first compound 0.06325 µM) it was 0.873. The relative viability with Cabozantinib + Alpelisib (first compound 0.2 µM) came to 0.904; with Cabozantinib + Alpelisib (first compound 0.6325 µM), 0.857; with Cabozantinib + Alpelisib (first compound 2 µM), 0.732; with Zosuquidar + Phenformin (first compound 0.01 µM) it was 0.466; with Zosuquidar + Phenformin (first compound 0.03162 µM), 0.438; with Zosuquidar + Phenformin (first compound 0.1 µM) it was 0.371. The relative viability with Zosuquidar + Phenformin (first compound 0.3162 µM) is 0.502; with Zosuquidar + Phenformin (first compound 1 µM) it was 0.471.

Regarding NCI-H1395, the relative viability was 0.991 with Kobe2602 + Trametinib (first compound 0.2 µM); 1.06 in the assay with Kobe2602 + Trametinib (first compound 0.6325 µM); 1.03 with Kobe2602 + Trametinib (first compound 2 µM); 0.989 in the assay with Kobe2602 + Trametinib (first compound 6.325 µM); 1.19 with Kobe2602 + Trametinib (first compound 20 µM); 0.612 with Kobe2602 + Pictilisib (first compound 0.2 µM). Besides, the relative viability with Kobe2602 + Pictilisib (first compound 0.6325 µM) came out at 0.664; with Kobe2602 + Pictilisib (first compound 2 µM), 0.617; with Kobe2602 + Pictilisib (first compound 6.325 µM), 0.65; with Kobe2602 + Pictilisib (first compound 20 µM) it was 0.816; with Cabozantinib + Alpelisib (first compound 0.02 µM), 1.13; with Cabozantinib + Alpelisib (first compound 0.06325 µM) it was 1.21. Besides, the relative viability came out at 1.06 with Cabozantinib + Alpelisib (first compound 0.2 µM); 1.13 with Cabozantinib + Alpelisib (first compound 0.6325 µM); 1.06 in the assay with Cabozantinib + Alpelisib (first compound 2 µM); 0.44 with Zosuquidar + Phenformin (first compound 0.01 µM); 0.482 in the assay with Zosuquidar + Phenformin (first compound 0.03162 µM); 0.418 in the assay with Zosuquidar + Phenformin (first compound 0.1 µM). The relative viability is 0.497 with Zosuquidar + Phenformin (first compound 0.3162 µM) and 0.466 with Zosuquidar + Phenformin (first compound 1 µM).

The values above are taken from the supplement of paper PMC10307832.
